Data: patent publication US6403561B1, “Tripeptidylpeptidase inhibitors” (Institut National de la Sante et de la Recherche Medicale …, priority 1998, dated 2002)
Counter-ions that a name gives are not always drawn. Where a SMILES comes first, the peptide text is derived from it. [ ]: non-standard residue; d: D form. The star is where a group is joined. Oic = O=C(O)[C@@H]1C[C@@H]2CCCC[C@@H]2N1; Tic = O=C(O)[C@@H]1Cc2ccccc2CN1; Abu = CC[C@H](N)C(=O)O; NHBu = CCCCN*; NHPr = CCCN*

Columns and labels:
liver TPP II = biological target: T1, liver TPP II (Mus musculus, UniProt Q64514); test: Inhibitory activity of TPP II ex vivo after administration to a rodent; type: in vivo; conditions: mice, 90 minutes after oral administration of 10 mg/kg
T1 construct: measuring the residual catalytic activity on membranes from brain or from a peripheral organ; from tissue; host or cells: mouse liver (membranes), ex vivo after oral dosing
T1 sequence (Q64514 whole entry): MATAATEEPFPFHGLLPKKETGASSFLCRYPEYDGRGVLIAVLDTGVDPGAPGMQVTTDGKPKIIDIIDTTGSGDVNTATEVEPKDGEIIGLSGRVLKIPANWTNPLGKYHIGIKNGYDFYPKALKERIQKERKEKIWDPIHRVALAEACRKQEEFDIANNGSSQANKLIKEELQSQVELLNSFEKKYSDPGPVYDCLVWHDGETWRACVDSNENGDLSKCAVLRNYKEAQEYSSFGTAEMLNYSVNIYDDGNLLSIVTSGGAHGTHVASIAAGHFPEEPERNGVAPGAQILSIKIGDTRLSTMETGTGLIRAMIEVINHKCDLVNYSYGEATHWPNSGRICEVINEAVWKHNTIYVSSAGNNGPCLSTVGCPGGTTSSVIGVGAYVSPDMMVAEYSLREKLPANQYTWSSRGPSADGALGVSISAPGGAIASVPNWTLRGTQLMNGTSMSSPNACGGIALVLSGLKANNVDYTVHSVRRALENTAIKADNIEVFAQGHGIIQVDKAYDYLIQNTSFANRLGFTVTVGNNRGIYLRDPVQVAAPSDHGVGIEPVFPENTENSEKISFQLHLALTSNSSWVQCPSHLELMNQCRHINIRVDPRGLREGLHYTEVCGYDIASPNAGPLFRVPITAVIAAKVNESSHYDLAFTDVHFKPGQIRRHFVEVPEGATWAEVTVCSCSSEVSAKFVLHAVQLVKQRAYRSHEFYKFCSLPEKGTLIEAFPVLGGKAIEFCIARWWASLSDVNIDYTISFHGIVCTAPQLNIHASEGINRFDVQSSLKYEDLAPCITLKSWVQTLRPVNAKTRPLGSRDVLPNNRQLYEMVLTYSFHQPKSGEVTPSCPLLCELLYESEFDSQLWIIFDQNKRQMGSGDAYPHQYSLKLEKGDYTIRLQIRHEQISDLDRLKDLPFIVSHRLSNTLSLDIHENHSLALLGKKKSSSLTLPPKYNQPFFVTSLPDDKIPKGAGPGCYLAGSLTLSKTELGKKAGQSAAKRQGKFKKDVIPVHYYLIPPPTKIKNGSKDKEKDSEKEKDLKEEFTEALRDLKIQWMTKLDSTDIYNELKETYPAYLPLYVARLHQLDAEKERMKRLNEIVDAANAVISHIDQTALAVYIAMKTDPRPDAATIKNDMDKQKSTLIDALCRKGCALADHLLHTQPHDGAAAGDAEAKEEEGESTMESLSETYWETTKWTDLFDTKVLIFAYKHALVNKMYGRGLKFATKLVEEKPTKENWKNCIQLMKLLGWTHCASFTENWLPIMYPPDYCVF
Procedure: This test is completed by an evaluation of the inhibitory activity of TPP II “ex vivo”, which consists in administering a compound according to the invention to a rodent and in measuring the residual catalytic activity on membranes from brain or from a peripheral organ.
For example, the activity of liver TPP II measured in mice 90 minutes after oral administration of 10 mg/kg of the compound of Example 9 is about 90-100% inhibited.

[1] = biological target: membrane-bound tripeptidylpeptidase II (Rattus norvegicus, UniProt Q64560); test: Measurement of the activity of membrane-bound tripeptidylpeptidase (release of Amc from A-AP-Amc, fluorimetry); conditions: apparent dissociation constant calculated from the 50% inhibitory concentration and the KM of the substrate (23 μM), rat brain membranes, 50 μM A-AP-Amc
membrane-bound tripeptidylpeptidase II, sequence (Q64560 whole entry): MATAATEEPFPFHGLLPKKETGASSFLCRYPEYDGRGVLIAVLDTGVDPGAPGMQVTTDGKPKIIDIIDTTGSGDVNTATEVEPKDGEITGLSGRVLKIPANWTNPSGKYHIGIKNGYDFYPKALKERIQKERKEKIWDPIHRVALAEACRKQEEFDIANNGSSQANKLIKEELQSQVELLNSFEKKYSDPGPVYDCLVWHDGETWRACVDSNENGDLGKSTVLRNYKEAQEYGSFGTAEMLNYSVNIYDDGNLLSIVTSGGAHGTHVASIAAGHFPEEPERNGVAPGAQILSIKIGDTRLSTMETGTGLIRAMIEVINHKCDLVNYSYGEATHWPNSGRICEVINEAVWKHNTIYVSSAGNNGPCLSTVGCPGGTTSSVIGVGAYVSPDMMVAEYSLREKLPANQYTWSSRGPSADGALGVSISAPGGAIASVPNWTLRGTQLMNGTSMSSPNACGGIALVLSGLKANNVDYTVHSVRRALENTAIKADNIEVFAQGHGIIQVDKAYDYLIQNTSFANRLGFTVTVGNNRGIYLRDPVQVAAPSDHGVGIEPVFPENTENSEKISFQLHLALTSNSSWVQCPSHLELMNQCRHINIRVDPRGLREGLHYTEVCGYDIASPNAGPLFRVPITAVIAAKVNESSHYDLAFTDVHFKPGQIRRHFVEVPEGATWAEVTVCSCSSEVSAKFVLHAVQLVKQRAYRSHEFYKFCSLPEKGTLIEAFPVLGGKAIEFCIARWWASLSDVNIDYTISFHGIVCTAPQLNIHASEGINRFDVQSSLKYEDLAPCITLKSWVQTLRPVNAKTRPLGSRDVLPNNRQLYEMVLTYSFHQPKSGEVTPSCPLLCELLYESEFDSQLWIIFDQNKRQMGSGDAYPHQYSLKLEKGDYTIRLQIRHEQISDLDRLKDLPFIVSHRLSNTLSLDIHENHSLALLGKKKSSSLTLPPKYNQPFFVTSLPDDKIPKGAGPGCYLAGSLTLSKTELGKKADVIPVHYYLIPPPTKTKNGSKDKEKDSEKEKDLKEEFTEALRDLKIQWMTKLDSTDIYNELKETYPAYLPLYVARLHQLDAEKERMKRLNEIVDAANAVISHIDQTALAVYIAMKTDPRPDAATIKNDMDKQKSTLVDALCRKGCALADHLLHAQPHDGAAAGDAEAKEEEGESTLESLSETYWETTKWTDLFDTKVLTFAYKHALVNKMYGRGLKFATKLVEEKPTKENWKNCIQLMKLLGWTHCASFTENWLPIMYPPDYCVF
Procedure: Membranes from rat brain were obtained by centrifugation (200,000×g min) of a homogenate prepared in 10 volumes of 50 mM potassium phosphate buffer, pH 7.4.
After washing thoroughly, the centrifugation pellet is taken up in the buffer containing 10% glycerol and 0.1% Brij 35 in order to obtain a concentration of 25 mg of proteins/ml.
The release of Amc is evaluated by fluorimetry.

endogenous CCK-8 = test: Protection of endogenous CCK-8 released from slices of depolarized rat cerebral cortex (radioimmunoassay); type: cell-based; conditions: concentration of 1 μM
Procedure: At a concentration of 1 μM, it multiplies the recovery of released CCK-8 4-fold (measured by radioimmunoassay).

[2] = Anorexigenic (pro-satiety) activity: spontaneous taking of solid food; type: in vivo; conditions: mice, 10 mg/kg intravenously, 30 to 90 minutes after free access to food, after overnight fasting
Procedure: In mice, at a dose of 10 mg/kg (intravenously), this compound decreases the spontaneous taking of solid food (“UAR” tablet) by 45%, measured over a period of 30 to 90 minutes after free access to this food (period preceded by fasting overnight and oral administration of 0.2 ml of a semi-liquid meal).

| melting point | Compound | also measured |
| --- | --- | --- |
| 135 to 136 °C | CC[C@H](C)CNC(=O)[C@@H]1CCCN1C(=O)[C@@H](N)CC (as salt: oxalate) [Example 5, 1-(2(S)-aminobutyryl)-L-proline [2(S)methyl]butylamide] |  |
| 165 to 166 °C | CCCCNC(=O)[C@@H]1CCCN1C(=O)[C@@H](N)C(C)C (as salt: oxalate) [Example 8, L-valyl-L-proline n-butylamide] (H-Val-Pro-NHBu) |  |
| 105 to 110 °C | CCCCNC(=O)[C@@H]1Cc2ccccc2CN1C(=O)[C@@H](N)CC (as salt: oxalate) [Example 13, 2-(2(S)-amino-butyryl)-1,2,3,4-tetrahydro-3(S)-isoquinolinecarboxylic Acid n-butylamide] (H-[Abu]-[Tic]-NHBu) |  |
| 168 to 169 °C | CCCCNC(=O)[C@@H]1C[C@@H]2CCCC[C@@H]2N1C(=O)[C@@H](N)CC (as salt: salt) [Example 22, 1-(2(S)-aminobutyryl)-2(S)-[(3aS,7aS)-perhydro]indolinecarboxylic Acid N-butylamide] (H-[Abu]-[Oic]-NHBu) |  |
| 46 to 51 °C | CCCNC(=O)[C@@H]1CCCN1C(=O)[C@@H](N)CC (as salt: trifluoroacetate) [Example 6, 1-(2(S)-amino-butyryl)-L-proline n-propylamide] (H-[Abu]-Pro-NHPr) |  |
| 58 to 61 °C | CC[C@H](N)C(=O)N1CCC[C@H]1C(=O)NCC(C)C (as salt: trifluoroacetate) [Example 7, 1-(2(S)-amino-butyryl)-L-proline isobutylamide] |  |
| 95 to 105 °C | CCCCNC(=O)C1Cc2cc(OC)ccc2N1C(=O)[C@@H](N)CC (mixture of isomers) (as salt: oxalate) [Example 18, 1-(2(S)-amino-butyryl)-2(R/S)-(5-methoxy)indolinecarboxylic Acid n-butylamide] |  |
| 105 to 110 °C | CCCCNC(=O)C1Cc2cc(F)ccc2N1C(=O)[C@@H](N)CC (mixture of isomers) (as salt: oxalate) [Example 20, 1-(2(S)-aminobutyryl)-2(R/S)-(5-fluoro)indolinecarboxylic Acid N-butylamide] |  |
| 90 to 92 °C | CCCCNC(=O)C1c2ccccc2CN1C(=O)[C@@H](N)CC (mixture of isomers) (as salt: oxalate) [Example 23, 2-(2(S)-aminobutyryl)-1-(R/S)-isoindolinecarboxylic Acid N-butylamide] |  |
| 112 to 120 °C | CCCCNC(=O)C1Cc2cc(OC)ccc2N1C(=O)[C@@H](N)C(C)C.O=C(O)C(=O)O (mixture of isomers) [Example 24, 1-(L-valyl)-5-methoxyindoline-2(R/S)-carboxylic Acid Butylamide Oxalate] |  |
| 112 to 118 °C | CCCCNC(=O)C1Cc2cc(OC)ccc2N1C(=O)[C@H](C)N.O=C(O)C(=O)O (mixture of isomers) [Example 25, 1-(L-alanyl)-5-methoxyindoline-2(R/S)-carboxylic Acid Butylamide Oxalate] |  |
| 117 to 119 °C | CCCCNC(=O)C1Cc2c(OC)cccc2N1C(=O)[C@@H](N)CC.O=C(O)C(=O)O (mixture of isomers) [Example 27, 1-(2(S)-aminobutyryl)-4-methoxyindoline-2(R/S)-carboxylic Acid Butylamide Oxalate] |  |
| 127 to 133 °C | CCCCNC(=O)C1N(C(=O)[C@@H](N)CC)c2ccccc2C1(C)C.O=C(O)C(=O)O (mixture of isomers) [Example 28, 1-(2(S)-aminobutyryl)-3,3-dimethylindoline-2(R/S)-carboxylic Acid Butylamide Oxalate] |  |
| 196.1 to 197.5 °C | CCCCNC(=O)C1Cc2c(ccc(OC)c2OC)N1C(=O)[C@@H](N)CC.O=C(O)C(=O)O (mixture of isomers) [Example 32, 1-(2(S)-aminobutyryl)-4,5-dimethoxyindoline-2(R/S)-carboxylic Acid Butylamide Oxalate] |  |
| 129 to 130 °C | CCCCNC(=O)C1Cc2cc(O)ccc2N1C(=O)[C@@H](N)CC.O=C(O)C(=O)O (mixture of isomers) [Example 34, 1-2(S)-aminobutyryl-5-hydroxyindoline-2(R/S)-carboxylic Acid Butylamide Oxalate] |  |
| 110 to 112 °C | CCCCNC(=O)C1Cc2cc(C)ccc2N1C(=O)[C@@H](N)CC.O=C(O)C(=O)O (mixture of isomers) [Example 35, 1-2(S)-aminobutyryl-5-methylindoline-2(R/S)-carboxylic Acid Butylamide Oxalate] |  |
|  | CC(C)[C@H](NC(=O)[C@@H]1CCCN1C(=O)[C@H](C)N)B1OC2CC3CC(C3(C)C)C2(C)O1 (stereo partly drawn) [Example 9, L-alanyl-L-prolyl-L-borovaline pinanediol ester] | inhibition of the activity of liver TPP II (liver TPP II): 90-100%; Ki [1]: 0.3 nM |
| 115 to 120 °C | CCNC(=O)[C@@H]1Cc2ccccc2N1C(=O)[C@@H](N)CC [Example 17, 1-(2(S)-aminobutyryl)-2(s)-indolinecarboxylic Acid ethylamide] |  |
|  | CCCCNC(=O)[C@@H]1C[C@@H]2CCCC[C@@H]2N1C(=O)[C@@H](N)CC [Example 22, 1-(2(S)-aminobutyryl)-2(S)-[(3aS,7aS)-perhydro]indolinecarboxylic Acid N-butylamide] (H-[Abu]-[Oic]-NHBu) | recovery of released CCK-8 (endogenous CCK-8): 4 fold; decrease of the spontaneous taking of solid food [2]: 45%; Ki ([1]; Ki): 560 nM |
| 141 to 143 °C | CCCCNC(=O)[C@@H]1Cc2cc(OC)ccc2N1C(=O)[C@H](C)N.O=C(O)C(=O)O [Example 26, 1-(L-alanyl)-5-methoxyindoline-2(S)-carboxylic Butylamide Oxalate] | Ki ([1]; Ki): 7.5 nM |
| 144.7 to 146.2 °C | CCCCNC(=O)[C@@H]1Cc2c(OCC)cccc2N1C(=O)[C@@H](N)CC.O=C(O)C(=O)O [Example 31, 1-(2(S)-aminobutyryl)-4-ethoxyindoline-2(S)-carboxylic Acid Butylamide Oxalate] | Ki ([1]; Ki): 29 nM |
| 156.5 to 158 °C | CCCCNC(=O)[C@@H]1Cc2cc(O)ccc2N1C(=O)[C@@H](N)CC.O=C(O)C(=O)O [Example 33, 1-(2(S)-aminobutyryl)-5-hydroxyindoline-2(S)-carboxylic Acid Butylamide Oxalate] | Ki ([1]; Ki): 6.6 nM |
| 83 to 84 °C | CCCCNC(=O)[C@@H]1Cc2cc(Cl)ccc2N1C(=O)[C@@H](N)CC.O=C(O)C(F)(F)F [Example 36, 1-(2(S)-aminobutyryl)-5-chloroindoline-2(S)-carboxylic Acid Butylamide Trifluoroacetate] |  |
